Assay results as given in publication PMC5291098, “Molecular mutagenesis of ppGpp: turning a RelA activator into an inhibitor” (Scientific Reports, 2017).
Read-outs that look alike come from different tables or passages of the source.

Biological target: T1, E. coli RelA (Escherichia coli, UniProt P0AG20)
T1 construct: made in house
Assay: Inhibition of [3H]GDP to [3H]ppGpp conversion by E. coli RelA activated by vacant 70S ribosomes and 100 μM ppGpp
Type: biochemical
Conditions: for IC50: 30 nM RelA, 0.5 μM vacant 70S, 100 μM ppGpp; for Activity against RelA (in words) / Inhibitory effect on RelA (in words): RelA:70S:ppGpp system; for Inhibitory effect on RelA (in words): concentrations up to 1 mM; for nHill (Hill coefficient of the titration fit): Supplementary Table 1, 4-parameter logistic model; for Activation of RelA's synthetic activity (in words): ppGpp up to 100 μM, ppApp 50 µM-1 mM, thio-ppGpp 100 µM (Supplementary Figure 1)
Experimental: For the initial characterization of compounds, we followed the inhibition of [^3H] GDP conversion to [^3H] ppGpp catalyzed by E. coli RelA in a simplified system in which RelA’s activity was induced by vacant 70S ribosomes and 100 μM of ppGpp[15]. Unlabeled ppGpp was added to reaction mixtures in order to linearize the kinetics of [^3H] ppGpp synthesis due to an activating effect on the RelA enzyme. We used a targeted library of 69 nucleotides belonging to several structural classes: ‘true’ ppGpp analogues; Relacin and its derivatives; pyrrolidine, azetidine, piperidine and acyclic phosphonates. Chemical structures of tested compounds and titrations in the RelA:70S:ppGpp system are presented in Supplementary Table 1.
Detailed description of experimental procedures can be found in Supplementary Text. Biochemical assays utilize in vitro translation[58] and stringent response[15] systems from E. coli purified components. Experiments were performed in HEPES:Polymix[58] buffer with either 5 (for enzymatically assembled initiation complexes) or 15 mM (for vacant 70 S, as well as non-enzymatically assembled programmed ribosomes) Mg^2+. Expression and purification of E. faecalis RelQ was performed as per Gaca (2015) and colleagues. GTPase and ppGpp synthesis were followed using TLC separation and radiochemical detection of ^3H-labelled nucleotides. Multiple round in vitro transcription assays were performed as per Bernardo et al.[49] with minor modifications. Inhibition efficiency (IC50) was calculated using 4-parameter logistic model (Hill equation) as per Sebaugh[60].
Thin layer chromatography (TLC) analysis of nucleotide mixtures
Both EF-G GTPase reaction and ppGpp synthesis by RelA were followed by TLC analysis followed by scintillation counting according to Mechold and colleagues, with modifications1. Time points from the reaction mixtures (5 μl, see below for details) were quenched by addition 4 μl 70% formic acid supplemented with a cold nucleotide standard used for UV-shadowing (10 mM GDP and 10 mM GTP) and spotted on PEI-TLC plates (Macherey-Nagel). TLC was run in buffer, plates dried, cut into sections guided by UV-shadowing and 3H radioactivity was quantified by scintillation counting in Optisafe-3 (Fisher) scintillation cocktail on Perkin Elmer Tricarb 2810TR counter. Conversion of substrate to product was quantified as described in Shyp et al. (2012)2.
Enzymatic assays with E. coli RelA
Screening: all experiments were performed in HEPES:Polymix, Mg2+ of 5 mM, 37 […]
μM ppGpp was pre-incubated at 37° C for 2 min and then reaction started by addition of 1 mM ATP, time points (5 μl) taken, quenched with formic acid and analyzed by TLC. Inhibition efficiency (IC50) was calculated using 4-parameter logistic model (Hill equation) as per Sebaugh (2011)3. […]

[1] = 0.3 mM [3H]GDP, 1 mM ATP, read-out: IC50
[2] = 5 mM Mg2+, 37 °C, no unit beside the value, titration axis in mM, read-out: IC50 (Supplementary Table 1, example titration)

T1 sequence (P0AG20 whole entry): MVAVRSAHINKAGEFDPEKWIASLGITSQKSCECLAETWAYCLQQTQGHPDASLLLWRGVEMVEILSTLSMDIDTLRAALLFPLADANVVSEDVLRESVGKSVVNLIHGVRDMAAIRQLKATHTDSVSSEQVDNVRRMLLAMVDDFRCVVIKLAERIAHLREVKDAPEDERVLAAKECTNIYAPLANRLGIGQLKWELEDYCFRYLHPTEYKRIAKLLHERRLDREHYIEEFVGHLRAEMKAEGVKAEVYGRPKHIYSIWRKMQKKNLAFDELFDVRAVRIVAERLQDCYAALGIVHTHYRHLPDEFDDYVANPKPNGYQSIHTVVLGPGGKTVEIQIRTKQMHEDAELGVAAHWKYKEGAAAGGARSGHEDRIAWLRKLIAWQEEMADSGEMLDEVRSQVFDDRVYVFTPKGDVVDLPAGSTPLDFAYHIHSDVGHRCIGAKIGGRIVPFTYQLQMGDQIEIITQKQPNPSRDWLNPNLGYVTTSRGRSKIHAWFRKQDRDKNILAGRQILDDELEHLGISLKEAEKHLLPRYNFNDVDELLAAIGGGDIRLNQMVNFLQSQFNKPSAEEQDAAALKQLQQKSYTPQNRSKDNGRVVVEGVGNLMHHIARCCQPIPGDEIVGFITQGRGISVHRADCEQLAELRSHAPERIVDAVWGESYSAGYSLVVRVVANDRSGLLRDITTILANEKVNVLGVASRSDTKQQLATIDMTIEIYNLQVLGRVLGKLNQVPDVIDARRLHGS

Row | SMILES | IC50 [1] | nHill (Hill coefficient of the titration fit) | other results
1 | CC(C)OP(=O)(O)CN1CC[C@H](n2cnc3c(=O)[nH]c(N)nc32)C1 [DR-4518] | 1710 ± 660 µM |  | 
2 | Nc1nc2c(ncn2C2CC(OC(=O)NCC(=O)NCC(=O)O)C(COC(=O)NCC(=O)NCC(=O)O)O2)c(=S)[nH]1 (stereo not shown) [DR-5732] |  |  | Activity against RelA (in words): virtually no activity; Activity against RelA (in words) (listed as thio-di-iBu-Relacin): complete inactivation
3 | NC(=O)C1=CN([C@@H]2O[C@H](COP(=O)(O)OP(=O)(O)OC[C@H]3O[C@@H](n4cnc5c(N)ncnc54)[C@H](OP(=O)(O)O)[C@@H]3O)[C@@H](O)[C@H]2O)C=CC1 [NADPH, reference compound] |  |  | Inhibitory effect on RelA (in words): None of the compounds showed any inhibitory effect
4 | Nc1nc2c(ncn2C2OC(COP(=O)(O)OP(=O)(O)O)C(OP(=O)(O)OP(=O)(O)O)C2O)c(=S)[nH]1 (stereo not shown) [6-thio-ppGpp, reference compound] | 21.3 ± 2.1 µM | 1.86 ± 0.29 | IC50 (5 mM Mg2+, 37 °C, no unit beside the value, titration axis in µM, read-out: IC50 (Supplementary Table 1, example titration)): 21.2 ± 2.08 µM; Activation of RelA's synthetic activity (in words): neither ppApp nor 6-thio-ppGpp activate; Activation of RelA's synthetic activity (in words) (listed as thio-ppGpp): do not activate
5 | Nc1nc2c(ncn2[C@@H]2CCN(C(=O)P(=O)(O)O)C2)c(=O)[nH]1 [DR-5267B] | 652 ± 194 µM | 0.95 ± 0.26 | 
6 | Nc1nc2c(ncn2[C@H]2CCN(C(=O)P(=O)(O)O)C2)c(=O)[nH]1 [DR-4520] | 200 ± 22 µM | 1.46 ± 0.2 | 
7 | Nc1nc2c(ncn2C2CC(OCP(=O)(O)O)C(COCP(=O)(O)O)O2)c(=O)[nH]1 (stereo not shown) [DR-5799C] | 515 ± 392 µM | 2.2 ± 2.5 | 
8 | Nc1nc2c(ncn2C2OC(COP(=O)(O)OP(=O)(O)O)C(OP(=O)(O)OP(=O)(O)O)C2O)c(=O)[nH]1 (stereo not shown) [ppGpp, guanosine tetraphosphate] | 720 ± 440 µM |  | 
9 | Nc1ncnc2c1ncn2[C@@H]1O[C@@H]2COP(=O)(O)O[C@H]3[C@@H](O)[C@H](n4cnc5c(N)ncnc54)O[C@@H]3COP(=O)(O)O[C@H]2[C@H]1O [c-di-AMP, reference compound] |  |  | Inhibitory effect on RelA (in words): None of the compounds showed any inhibitory effect
10 | Nc1ncnc2c1ncn2C1CCN(C(=O)P(=O)(O)O)CC1 [DR-5994A] |  | 1 ± 0.088 | IC50 [2]: 300 ± 30 µM
11 | Nc1nc2c(ncn2C2CCN(C(=O)CP(=O)(O)O)CC2)c(=O)[nH]1 [DR-M011] | 234 ± 67 µM | 0.62 ± 0.13 | IC50 [2]: 230 ± 70 µM
12 | Nc1nc2c(ncn2[C@@H]2O[C@@H]3COP(=O)(O)O[C@H]4[C@@H](O)[C@H](n5cnc6c(N)ncnc65)O[C@@H]4COP(=O)(O)O[C@H]3[C@H]2O)c(=O)[nH]1 [c-di-GAMP, reference compound] |  |  | Inhibitory effect on RelA (in words): None of the compounds showed any inhibitory effect
13 | Nc1nc2c(ncn2CCNCC(=O)P(=O)(O)O)c(=O)[nH]1 [DR-5164] | 1400 ± 120 µM |  | 
14 | NC(=O)C1=CN([C@@H]2O[C@H](COP(=O)(O)OP(=O)(O)OC[C@H]3O[C@@H](n4cnc5c(N)ncnc54)[C@H](O)[C@@H]3O)[C@@H](O)[C@H]2O)C=CC1 [NADH, reference compound] |  |  | Inhibitory effect on RelA (in words): None of the compounds showed any inhibitory effect
15 | Nc1nc2c(ncn2[C@@H]2O[C@@H]3COP(=O)(O)O[C@H]4[C@@H](O)[C@H](n5cnc6c(=O)[nH]c(N)nc65)O[C@@H]4COP(=O)(O)O[C@H]3[C@H]2O)c(=O)[nH]1 [c-di-GMP, reference compound] |  |  | Inhibitory effect on RelA (in words): None of the compounds showed any inhibitory effect
16 | Nc1nc2c(ncn2C2CC(OC(=O)NCC(=O)NCC(=O)O)C(COC(=O)NCC(=O)NCC(=O)O)O2)c(=O)[nH]1 (stereo not shown) [di-iBu-Relacin] |  |  | Activity against RelA (in words): compromises its activity against RelA
17 | Nc1nc2c(ncn2C2OC(COCP(=O)(O)O)C(OCP(=O)(O)O)C2O)c(=O)[nH]1 (stereo not shown) [DR-6331] | 76 ± 6 µM | 1.5 ± 0.2 | 
18 | CC(C)C(=O)Nc1nc2c(ncn2C2OC(COP(=O)(O)OCP(=O)(O)O)C(OP(=O)(O)OCP(=O)(O)O)C2O)c(=O)[nH]1 (stereo not shown) [DR-4239, 2-N-isobutyryl-guanosine 3’,5’-di(phosphonomethoxyphosphate)] | 101 ± 8 µM | 2.13 ± 0.3 | IC50 [2]: 102 ± 8 µM
19 | CC(C)C(=O)Nc1nc2c(ncn2[C@@H]2O[C@H](COP(=O)(O)OCP(=O)(O)O)[C@@H](OP(=O)(O)OCP(=O)(O)O)[C@H]2OC2CCCCO2)c(=O)[nH]1 (stereo partly shown) [DR-4238, 2-N-isobutyryl-2’-tetrahydropyranylguanosine 3’,5’-di(phosphonomethoxyphosphate)] |  | 1.85 ± 0.2 | IC50 [2]: 100 ± 6 µM
